# Experimental data reported in the supplement of paper PMC10307832.
# Columns and labels:
# Experiment in all cases: relative viability (nuclei count vs DMSO), 5 days (fraction); higher = more cells survive
# Apatinib + Phenformin = compound: N#CC1(c2ccc(NC(=O)c3cccnc3NCc3ccncc3)cc2)CCCC1 [Apatinib] + N=C(N)NC(=N)NCCc1ccccc1 [Phenformin] (partner 250 µM)
# Method in brief: (§1)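 After 5 days of treatment, lung cancer cells in 1536-well plates were fixed and stained in a single step (final 0.05% Triton X-100, 1% formaldehyde, 1 ug/ml Hoechst) and their nuclei counted on 4× images. Treatment had been applied by pin tool the day after seeding as one drug alone or as a fixed anchor-drug dose with five library-drug doses (not always all listed) in √10 steps. Relative viability is the nuclei count of treated wells divided by that of vehicle wells, and values are medians of duplicate plates.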
# Metformin = compound: CN(C)C(=N)NC(=N)N [Metformin]
# Method in brief: (§2)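 Acceptance criteria were a control CV below 25% and at least one doubling per plate. Lung cancer cell lines in 1536-well plates got five library-drug doses (not always all listed) √10 apart by pinning and were left 5 days with no medium change. Viability divides treated-well nuclei by vehicle-well nuclei and is the median across plates. Nuclei were counted by MetaXpress from 4× Hoechst images.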
# Apatinib = compound: N#CC1(c2ccc(NC(=O)c3cccnc3NCc3ccncc3)cc2)CCCC1 [Apatinib]
# Method in brief: as §2
# Metformin + Navitoclax = compound: CN(C)C(=N)NC(=N)N [Metformin] + CC1(C)CCC(c2ccc(Cl)cc2)=C(CN2CCN(c3ccc(C(=O)NS(=O)(=O)c4ccc(N[C@H](CCN5CCOCC5)CSc5ccccc5)c(S(=O)(=O)C(F)(F)F)c4)cc3)CC2)C1 [Navitoclax] (partner 0.5 µM)
# Method in brief: as §1
Cell Line,relative viability (Apatinib + Phenformin; first compound 0.08 µM),relative viability (Apatinib + Phenformin; first compound 0.253 µM),relative viability (Apatinib + Phenformin; first compound 0.8 µM),relative viability (Apatinib + Phenformin; first compound 2.53 µM),relative viability (Apatinib + Phenformin; first compound 8 µM),relative viability (Metformin; 10 µM),relative viability (Metformin; 31.62 µM),relative viability (Metformin; 100 µM),relative viability (Metformin; 316.23 µM),relative viability (Metformin; 1000 µM),relative viability (Apatinib; 0.08 µM),relative viability (Apatinib; 0.253 µM),relative viability (Apatinib; 0.8 µM),relative viability (Apatinib; 2.53 µM),relative viability (Apatinib; 8 µM),relative viability (Metformin + Navitoclax; first compound 10 µM),relative viability (Metformin + Navitoclax; first compound 31.62 µM),relative viability (Metformin + Navitoclax; first compound 100 µM),relative viability (Metformin + Navitoclax; first compound 316.23 µM),relative viability (Metformin + Navitoclax; first compound 1000 µM)
NCI-H1623,0.601,0.624,0.636,0.511,0.616,0.985,0.982,1.08,0.909,1.03,1,0.924,0.966,0.946,0.593,–,–,–,–,–
HCC-15,0.472,0.512,0.435,0.39,0.371,–,1.08,1,0.926,1.05,1.1,0.978,0.971,0.909,0.841,0.686,0.726,0.719,0.618,0.699
NCI-H441,0.849,0.762,0.827,0.784,0.76,–,0.761,0.985,0.667,0.944,1.08,1.05,0.837,0.864,0.743,0.408,–,0.55,–,0.486
NCI-H1993,0.533,0.555,0.528,0.485,0.567,1.03,0.892,1,0.872,1.07,1.01,0.923,0.889,0.833,0.869,1.04,1.04,1.28,0.968,1.25
NCI-H1915,0.377,0.353,0.334,0.354,0.326,–,0.998,1.02,0.968,1.01,1.06,0.959,0.963,0.879,0.821,–,0.794,0.702,0.749,0.806
ABC-1,–,0.264,0.234,0.217,0.249,0.847,1.2,0.965,0.948,0.448,–,1.06,0.86,0.911,0.703,–,–,–,–,–
NCI-H2087,0.499,0.46,0.424,0.339,0.374,0.79,0.965,0.944,0.813,1.01,1.05,1.03,1.22,0.788,0.814,0.951,0.86,0.96,0.782,0.834
NCI-H1755,0.626,0.611,0.628,0.609,0.559,0.807,0.891,0.864,0.853,0.897,1.02,1,1,1.06,0.951,0.821,0.897,0.912,0.89,0.935
HCC-366,0.635,0.61,0.578,0.525,0.456,0.926,1.06,1.02,0.964,1.03,1.03,1,1.02,0.97,0.988,1.12,1.12,1.06,0.991,1.06
NCI-H2170,0.462,0.404,0.373,0.355,0.335,0.787,0.882,0.907,0.957,1.01,0.981,1.01,0.909,0.89,0.886,0.579,0.526,0.575,0.497,0.507
NCI-H1792,0.5,0.227,0.235,0.111,0.184,0.901,0.969,1.06,1.01,1.05,0.884,0.883,0.887,0.863,0.725,–,0.528,0.857,0.538,0.617
SW 1573,0.485,0.426,0.376,0.397,0.387,1.13,1.1,1.01,0.843,0.864,1.08,1.12,0.941,0.839,0.872,0.878,0.835,1.11,0.994,1.1
HCC-827,0.4,0.406,0.212,0.382,0.351,–,0.988,0.993,0.967,0.997,1.02,1.02,0.96,0.976,1.02,–,0.96,0.982,0.923,1.01
NCI-H358,0.316,0.353,0.321,0.377,0.383,0.939,1.09,1.03,0.98,1.09,0.987,1.03,0.962,0.961,0.877,–,–,–,–,–
